Assay results published in patent publication US8680114B2, “AKT protein kinase inhibitors” (Array Biopharma, Inc., priority 2003, dated 2014).

Target: full-length human recombinant active AKT-1 (Homo sapiens, UniProt P31749)
Test: AKT-1 kinase assay (IMAP fluorescence polarization, phosphorylation of fluorescently-labeled peptide)
Type: biochemical
Details: AKT-1 IMAP assay, qualitative statement, values not given
Source text: The activity of the compounds described in the present invention may be determined by the following procedure: This procedure describes a kinase assay that measures the phosphorylation of a fluorescently-labeled peptide by full-length human recombinant active AKT-1 by fluorescent polarization using a commercially available IMAP kit.
The assay materials come from an IMAP AKT Assay Bulk Kit, product #R8059, from Molecular Devices, Sunnyvale, Calif. The kit materials include an IMAP Reaction Buffer (5×): The diluted 1×IMAP Reaction Buffer contains 10 mM Tris-HCl, pH 7.2, 10 mM MgCl2, 0.1% BSA, 0.05% NaN3. DTT is routinely added to a final concentration of 1 mM immediately prior to use.
Also included are IMAP Binding Buffer (5×), and IMAP Binding Reagent. The Binding Solution is prepared as a 1:400 dilution of IMAP Binding Reagent into 1×IMAP Binding Buffer.
Fluorescein-labeled AKT Substrate (Crosstide), having the sequence (F1)-GRPRTSSFAEG. A stock solution of 20 μM is made up in 1×IMAP Reaction Buffer.
The plates used include a Costar 3657 ([…] made of polypropylene and having a white, v-bottom) that is used for compound dilution and for preparing the compound-ATP mixture. The assay plate was the Packard ProxyPlate™-384 F.
The AKT-1 used was made from full-length, human recombinant AKT-1 that is activated with PDK1 and MAP kinase 2.
The assay procedure starts the preparation of stock solutions of compounds at 10 mM in DMSO. The stock solutions and the control compound are serially diluted 1:2 nine times into DMSO (10 μL of compound+10 μL of DMSO) to give 50× dilution series over the desired dosing range. […]
The assay is initiated by the addition of 2.5-μL aliquots of a solution containing 200 nM of fluorescently-labeled peptide substrate and 4 nM AKT-1. […] The reaction is then quenched by the addition of 15 μL of Binding Solution, centrifuged again and incubated for an additional 30 minutes at ambient temperature prior to reading on a Victor 1420 Multilabel HTS Counter configured to measure fluorescence polarization.

Sequence of full-length human recombinant active AKT-1 (P31749 whole entry): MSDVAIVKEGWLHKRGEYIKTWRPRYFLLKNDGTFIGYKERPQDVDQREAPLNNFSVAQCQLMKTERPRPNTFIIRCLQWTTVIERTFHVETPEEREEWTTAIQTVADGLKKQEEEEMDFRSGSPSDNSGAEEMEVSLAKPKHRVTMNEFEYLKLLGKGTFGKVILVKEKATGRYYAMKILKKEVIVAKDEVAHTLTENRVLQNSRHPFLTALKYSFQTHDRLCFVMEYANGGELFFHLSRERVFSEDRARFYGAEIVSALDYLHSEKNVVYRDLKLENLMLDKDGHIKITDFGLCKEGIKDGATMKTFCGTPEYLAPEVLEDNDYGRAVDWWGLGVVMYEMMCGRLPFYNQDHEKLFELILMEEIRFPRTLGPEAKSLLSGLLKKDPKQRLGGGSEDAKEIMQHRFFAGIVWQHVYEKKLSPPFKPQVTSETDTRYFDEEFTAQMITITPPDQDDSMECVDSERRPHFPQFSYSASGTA

Compound | activity for inhibiting AKT protein kinases
N[C@H](Cc1ccc(Cl)cc1)C(=O)N1CCN(c2ncnc3ccccc23)CC1 [Example 9, (2R)-2-Amino-3-(4-chlorophenyl)-1-(4-quinazolin-4-yl-piperazin-1-yl)-propan-1-one] | showed activity
N[C@H](Cc1ccc2ccccc2c1)C(=O)N1CCN(c2ncnc3ccccc23)CC1 [Example 11, (2R)-2-Amino-3-(2-naphthyl)-1-(4-quinazolin-4-yl-piperazin-1-yl)-propan-1-one] | showed activity
N[C@H](Cc1ccc(Cl)cc1)C(=O)N1CCN(c2ccnc3ccsc23)CC1 [Example 24, (2R)-2-amino-3-(4-chlorophenyl)-1-(4-thieno[3,2,b]pyridin-7-yl-piperazin-1-yl)-propan-1-one dihydochloride] | showed activity
